Experimental data taken from ChEMBL document CHEMBL1201862, “PubChem BioAssay data set” (2004).
pIC50: −log10 of the molar value. Calls of active or inactive are those of the source.

Experiments:
[1] = target: T1, Intestinal-type alkaline phosphatase (Homo sapiens, UniProt P09923); experiment: inhibition of human intestinal alkaline phosphatase – biochemical, dose response (AID 488876); format: functional
[2] = target: Intestinal-type alkaline phosphatase (Mus musculus, UniProt P24822); experiment: PubChem AID 488785; format: functional
Sequence of Intestinal-type alkaline phosphatase (Mus musculus, UniProt P24822) (P24822 whole entry): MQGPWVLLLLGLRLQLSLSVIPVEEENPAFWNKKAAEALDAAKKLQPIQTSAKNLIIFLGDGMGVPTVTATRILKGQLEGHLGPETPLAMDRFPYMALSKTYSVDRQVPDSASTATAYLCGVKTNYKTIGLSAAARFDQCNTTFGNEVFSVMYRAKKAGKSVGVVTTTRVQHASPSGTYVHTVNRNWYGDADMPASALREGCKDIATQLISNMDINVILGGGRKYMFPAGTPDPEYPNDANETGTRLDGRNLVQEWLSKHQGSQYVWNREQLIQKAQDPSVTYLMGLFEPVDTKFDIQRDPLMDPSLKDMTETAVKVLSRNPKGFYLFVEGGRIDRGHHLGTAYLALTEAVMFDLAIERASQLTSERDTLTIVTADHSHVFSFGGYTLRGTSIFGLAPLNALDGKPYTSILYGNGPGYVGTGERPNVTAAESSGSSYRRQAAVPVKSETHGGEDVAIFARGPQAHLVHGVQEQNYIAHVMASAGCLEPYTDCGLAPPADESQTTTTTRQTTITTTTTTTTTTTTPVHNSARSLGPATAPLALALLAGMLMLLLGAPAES

[3] = target: T2, Alkaline phosphatase, tissue-nonspecific isozyme (Homo sapiens, UniProt P05186); experiment: TNAP enzyme inhibition by screening hits, dose response, selectivity assay for mouse IAP inhibitor project, biochemical, human TNAP, uHTS hits (AID 488906); format: functional
T2 sequence (P05186 whole entry): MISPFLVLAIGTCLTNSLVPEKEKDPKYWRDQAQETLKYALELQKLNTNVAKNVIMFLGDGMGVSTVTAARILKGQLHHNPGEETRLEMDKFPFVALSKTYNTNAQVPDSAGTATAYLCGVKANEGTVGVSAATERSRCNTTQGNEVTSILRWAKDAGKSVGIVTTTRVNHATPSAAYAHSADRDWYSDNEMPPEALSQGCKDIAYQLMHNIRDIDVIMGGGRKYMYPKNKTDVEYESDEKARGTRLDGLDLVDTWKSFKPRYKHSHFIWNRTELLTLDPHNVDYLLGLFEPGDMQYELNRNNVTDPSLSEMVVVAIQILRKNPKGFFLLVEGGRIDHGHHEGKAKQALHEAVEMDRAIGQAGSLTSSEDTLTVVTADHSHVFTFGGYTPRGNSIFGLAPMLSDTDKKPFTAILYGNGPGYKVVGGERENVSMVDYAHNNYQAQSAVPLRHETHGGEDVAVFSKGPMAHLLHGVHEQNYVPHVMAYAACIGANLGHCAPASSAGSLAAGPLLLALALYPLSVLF

[4] = target: T3, Tyrosine-protein phosphatase non-receptor type 22 (Homo sapiens, UniProt Q9Y2R2); experiment: LYP (PTPN22) phosphatase inhibitor potency, SAR follow-up, biochemical, pCAP fluorogenic substrate, fluorescence, set 3 (AID 449727); format: functional
T3 sequence (Q9Y2R2 whole entry): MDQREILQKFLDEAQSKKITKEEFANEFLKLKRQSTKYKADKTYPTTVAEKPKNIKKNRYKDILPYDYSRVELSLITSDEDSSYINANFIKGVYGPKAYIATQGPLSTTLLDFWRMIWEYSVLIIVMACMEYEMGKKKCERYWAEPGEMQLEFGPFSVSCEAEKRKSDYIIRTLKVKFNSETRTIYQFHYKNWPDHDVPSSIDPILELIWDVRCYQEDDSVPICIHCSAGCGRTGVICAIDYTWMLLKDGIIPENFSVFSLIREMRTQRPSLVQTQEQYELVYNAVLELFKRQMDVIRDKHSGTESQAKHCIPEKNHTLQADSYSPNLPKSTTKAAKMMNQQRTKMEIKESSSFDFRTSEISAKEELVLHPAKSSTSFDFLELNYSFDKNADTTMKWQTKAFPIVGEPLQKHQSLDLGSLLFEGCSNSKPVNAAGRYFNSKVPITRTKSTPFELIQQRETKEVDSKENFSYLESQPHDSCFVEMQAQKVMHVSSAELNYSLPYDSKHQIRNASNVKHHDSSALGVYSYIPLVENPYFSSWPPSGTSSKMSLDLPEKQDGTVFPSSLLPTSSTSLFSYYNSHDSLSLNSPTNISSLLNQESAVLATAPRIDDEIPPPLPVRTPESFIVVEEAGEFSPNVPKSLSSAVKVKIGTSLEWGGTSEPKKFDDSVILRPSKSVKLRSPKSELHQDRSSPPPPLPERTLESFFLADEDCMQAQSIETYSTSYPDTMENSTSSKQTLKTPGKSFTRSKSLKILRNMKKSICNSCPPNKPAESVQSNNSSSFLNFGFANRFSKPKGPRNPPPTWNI

[5] = target: T3, Tyrosine-protein phosphatase non-receptor type 22; experiment: SAR LYP1 Fluorescent Assay using OMFP substrate for In Vitro dose response studies - Set 2. [Related pubchem assays (depositor defined):AID1779, AID1784, AID2140, AID449726, AID488869]; format: functional
[6] = target: T4, Tyrosine-protein phosphatase non-receptor type 7 (Homo sapiens, UniProt P35236); experiment: HePTP (PTPN7) phosphatase inhibitor potency, SAR follow-up, biochemical, set 2 (AID 449736); format: functional
T4 sequence (P35236 whole entry): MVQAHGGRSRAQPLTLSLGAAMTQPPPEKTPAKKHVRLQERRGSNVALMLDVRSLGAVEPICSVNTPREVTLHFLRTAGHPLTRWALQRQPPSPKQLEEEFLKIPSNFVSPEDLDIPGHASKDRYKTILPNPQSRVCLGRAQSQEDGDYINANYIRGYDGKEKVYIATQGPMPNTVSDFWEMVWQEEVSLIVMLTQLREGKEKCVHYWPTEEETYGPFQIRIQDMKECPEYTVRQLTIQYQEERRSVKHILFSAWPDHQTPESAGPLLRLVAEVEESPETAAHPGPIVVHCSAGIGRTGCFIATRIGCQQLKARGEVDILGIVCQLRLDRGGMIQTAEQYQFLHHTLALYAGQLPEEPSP

[7] = target: Tyrosine-protein phosphatase non-receptor type 12 (Homo sapiens, UniProt Q05209); experiment: SAR Selectivity Analysis of small molecule inhibitors of PEST using pCAP in a fluorescence assay. [Related pubchem assays (depositor defined):AID1779, AID1784, AID2135]; format: functional
[8] = target: T3, Tyrosine-protein phosphatase non-receptor type 22; experiment: SAR LYP1 Fluorescent Assay using pCAP substrate for In Vitro dose response studies - Set 2. [Related pubchem assays (depositor defined):AID1779, AID1784, AID2135, AID449727]; format: functional
[9] = target: T3, Tyrosine-protein phosphatase non-receptor type 22; experiment: SAR LYP1 Fluorescent Assay using OMFP substrate for In Vitro dose response studies - Set 3. [Related pubchem assays (depositor defined):AID1779, AID1784, AID2140, AID2686]; format: functional
Mu-type opioid receptor = Mu-type opioid receptor (Homo sapiens, UniProt P35372); experiment: HTS Image-Based Screen for Agonists of the MOR Receptor. [Related pubchem assays (depositor defined):AID1777, AID1785, AID1786, AID2133]; format: functional;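 also: imaging of beta-arrestin GFP recruitment into spots after receptor activation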
Sequence of Mu-type opioid receptor (P35372 whole entry): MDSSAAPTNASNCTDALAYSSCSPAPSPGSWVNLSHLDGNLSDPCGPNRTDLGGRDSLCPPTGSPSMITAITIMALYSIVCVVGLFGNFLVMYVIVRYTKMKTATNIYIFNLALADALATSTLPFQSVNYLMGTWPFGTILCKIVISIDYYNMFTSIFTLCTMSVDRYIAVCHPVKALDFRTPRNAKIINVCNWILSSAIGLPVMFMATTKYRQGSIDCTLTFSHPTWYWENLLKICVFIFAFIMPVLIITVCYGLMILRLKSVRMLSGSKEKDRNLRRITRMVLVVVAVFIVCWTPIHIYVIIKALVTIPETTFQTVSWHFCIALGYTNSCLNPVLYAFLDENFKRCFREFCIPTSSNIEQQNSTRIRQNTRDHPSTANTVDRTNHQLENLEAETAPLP

Beta-galactosidase = Beta-galactosidase (Escherichia coli, UniProt Q8VNN2); format: functional
[10] = target: T5, Delta-type opioid receptor (Homo sapiens, UniProt P41143); experiment: HTS Image-Based Screen for Agonists of the DOR Receptor. [Related pubchem assays (depositor defined):AID1777, AID1786, AID2133]; format: functional
T5 sequence (P41143 whole entry): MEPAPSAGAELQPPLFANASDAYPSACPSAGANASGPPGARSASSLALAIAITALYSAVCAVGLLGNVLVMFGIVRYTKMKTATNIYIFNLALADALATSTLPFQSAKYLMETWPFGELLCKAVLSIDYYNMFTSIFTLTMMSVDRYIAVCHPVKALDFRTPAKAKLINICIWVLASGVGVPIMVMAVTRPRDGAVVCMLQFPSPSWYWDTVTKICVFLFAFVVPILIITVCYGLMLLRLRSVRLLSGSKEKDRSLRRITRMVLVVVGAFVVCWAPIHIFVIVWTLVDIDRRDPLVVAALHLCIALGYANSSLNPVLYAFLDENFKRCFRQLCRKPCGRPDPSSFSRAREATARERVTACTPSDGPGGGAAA

[11] = target: T6, Kappa-type opioid receptor (Homo sapiens, UniProt P41145); format: functional
T6 sequence (P41145 whole entry): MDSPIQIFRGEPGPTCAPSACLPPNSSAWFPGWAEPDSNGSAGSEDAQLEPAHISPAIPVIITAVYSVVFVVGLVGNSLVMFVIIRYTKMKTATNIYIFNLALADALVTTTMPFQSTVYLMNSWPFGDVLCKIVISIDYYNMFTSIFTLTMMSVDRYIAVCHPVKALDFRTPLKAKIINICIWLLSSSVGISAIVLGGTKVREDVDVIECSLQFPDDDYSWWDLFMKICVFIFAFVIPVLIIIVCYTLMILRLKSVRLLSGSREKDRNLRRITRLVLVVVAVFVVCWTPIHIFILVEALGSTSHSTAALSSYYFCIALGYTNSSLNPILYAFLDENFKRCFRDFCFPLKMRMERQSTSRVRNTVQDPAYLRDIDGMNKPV

[12] = target: T5, Delta-type opioid receptor; experiment: HTS Image-Based Screen for Antagonists of the DOR Receptor. [Related pubchem assays (depositor defined):AID1777, AID1785, AID1786, AID2133]; format: functional
[13] = target: T6, Kappa-type opioid receptor; format: functional; remark: listed apart in the source
SUMO E1/E2 = SUMO E1/E2 (Homo sapiens, UniProt P63279+Q9UBE0+Q9UBT2); experiment: SAR analysis of SUMOylation using HTRF in an in-Vitro dose response assay. [Related pubchem assays (depositor defined):AID2006, AID2011, AID2018, AID2069, AID2658]; format: functional
Sequence of SUMO E1/E2 (Q9UBE0 whole entry): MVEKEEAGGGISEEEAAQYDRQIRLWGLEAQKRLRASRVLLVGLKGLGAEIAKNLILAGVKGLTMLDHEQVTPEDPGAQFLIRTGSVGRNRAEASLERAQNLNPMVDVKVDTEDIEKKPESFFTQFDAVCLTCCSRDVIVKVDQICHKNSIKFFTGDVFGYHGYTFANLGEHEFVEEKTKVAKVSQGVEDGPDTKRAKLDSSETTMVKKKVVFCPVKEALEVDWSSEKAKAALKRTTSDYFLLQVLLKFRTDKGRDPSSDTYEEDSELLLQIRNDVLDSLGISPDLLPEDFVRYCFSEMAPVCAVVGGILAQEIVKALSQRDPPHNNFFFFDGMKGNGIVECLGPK
Sequence of SUMO E1/E2 (Q9UBT2 whole entry): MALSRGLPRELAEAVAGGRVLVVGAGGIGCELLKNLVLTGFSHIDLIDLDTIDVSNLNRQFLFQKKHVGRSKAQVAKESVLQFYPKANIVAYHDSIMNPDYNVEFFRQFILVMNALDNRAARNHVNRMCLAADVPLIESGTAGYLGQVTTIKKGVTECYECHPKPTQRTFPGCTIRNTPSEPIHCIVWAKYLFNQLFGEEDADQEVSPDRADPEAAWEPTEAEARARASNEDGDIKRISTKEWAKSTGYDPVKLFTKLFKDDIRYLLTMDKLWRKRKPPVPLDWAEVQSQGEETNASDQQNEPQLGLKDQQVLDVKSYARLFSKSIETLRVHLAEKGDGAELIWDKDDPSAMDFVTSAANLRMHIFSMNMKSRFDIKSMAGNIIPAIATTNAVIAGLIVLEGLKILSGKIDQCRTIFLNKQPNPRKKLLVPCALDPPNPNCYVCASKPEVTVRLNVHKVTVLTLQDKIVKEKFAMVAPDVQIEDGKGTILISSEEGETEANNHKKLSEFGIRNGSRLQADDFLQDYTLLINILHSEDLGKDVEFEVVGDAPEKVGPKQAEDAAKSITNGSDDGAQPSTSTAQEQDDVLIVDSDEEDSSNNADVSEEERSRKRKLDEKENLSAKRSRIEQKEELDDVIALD
Sequence of SUMO E1/E2 (P63279 whole entry): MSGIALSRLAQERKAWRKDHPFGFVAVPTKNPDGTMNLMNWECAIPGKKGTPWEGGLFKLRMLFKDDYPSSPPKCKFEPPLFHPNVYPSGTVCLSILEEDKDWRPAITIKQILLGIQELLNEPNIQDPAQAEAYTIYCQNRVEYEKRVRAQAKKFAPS

[14] = target: Lysine-specific demethylase 4A (Homo sapiens, UniProt O75164); experiment: JMJD2A histone demethylase inhibitors, dose response, selectivity assay for GASC-1 inhibitor project, biochemical, DELFIA europium, cherry-picked samples (AID 488840)
[15] = target: T7, Sentrin-specific protease 8 (Homo sapiens, UniProt Q96LD8); format: functional
T7 sequence (Q96LD8 whole entry): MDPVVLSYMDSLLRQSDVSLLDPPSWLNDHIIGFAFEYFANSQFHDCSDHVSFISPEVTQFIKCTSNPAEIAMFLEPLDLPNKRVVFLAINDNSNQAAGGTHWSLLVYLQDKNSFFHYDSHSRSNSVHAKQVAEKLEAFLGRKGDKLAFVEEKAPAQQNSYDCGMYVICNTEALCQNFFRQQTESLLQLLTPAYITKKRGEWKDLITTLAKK

[16] = target: Lysine-specific demethylase 4C (Homo sapiens, UniProt Q9H3R0); experiment: GASC-1 (JMJD2C) histone demethylase inhibitors, dose response, biochemical, DELFIA europium, cherry-picked samples (AID 488835); format: functional
Sequence of Lysine-specific demethylase 4C (Q9H3R0 whole entry): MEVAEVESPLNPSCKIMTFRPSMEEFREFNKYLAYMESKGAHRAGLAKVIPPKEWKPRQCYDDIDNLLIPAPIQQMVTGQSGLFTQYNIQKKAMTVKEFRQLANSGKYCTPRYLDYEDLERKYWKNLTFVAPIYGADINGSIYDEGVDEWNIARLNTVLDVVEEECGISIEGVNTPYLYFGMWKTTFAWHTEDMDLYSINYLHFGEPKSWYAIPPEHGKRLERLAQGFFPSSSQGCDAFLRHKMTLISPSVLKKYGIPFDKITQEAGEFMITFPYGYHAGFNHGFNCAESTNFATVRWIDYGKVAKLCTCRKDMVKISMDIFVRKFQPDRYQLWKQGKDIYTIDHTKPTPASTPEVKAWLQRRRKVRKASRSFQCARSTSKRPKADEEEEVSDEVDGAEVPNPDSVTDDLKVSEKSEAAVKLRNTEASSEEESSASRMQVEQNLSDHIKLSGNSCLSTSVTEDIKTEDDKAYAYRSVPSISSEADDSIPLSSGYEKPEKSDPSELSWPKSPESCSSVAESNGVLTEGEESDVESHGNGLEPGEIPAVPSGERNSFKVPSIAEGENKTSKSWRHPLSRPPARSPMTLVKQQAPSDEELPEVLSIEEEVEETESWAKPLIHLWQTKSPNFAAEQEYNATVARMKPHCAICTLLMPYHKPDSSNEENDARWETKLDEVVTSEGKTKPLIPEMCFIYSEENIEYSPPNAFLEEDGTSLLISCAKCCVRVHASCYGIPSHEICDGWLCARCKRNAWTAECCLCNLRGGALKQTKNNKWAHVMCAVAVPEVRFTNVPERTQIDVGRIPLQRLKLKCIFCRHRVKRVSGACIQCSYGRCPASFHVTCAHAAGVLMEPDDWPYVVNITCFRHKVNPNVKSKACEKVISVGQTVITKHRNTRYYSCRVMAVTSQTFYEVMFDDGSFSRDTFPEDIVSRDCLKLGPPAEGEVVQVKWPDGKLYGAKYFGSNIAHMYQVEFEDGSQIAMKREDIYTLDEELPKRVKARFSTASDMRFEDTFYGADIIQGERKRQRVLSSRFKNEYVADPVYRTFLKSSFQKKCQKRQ

[17] = target: T7, Sentrin-specific protease 8; format: functional; remark: listed apart in the source
[18] = target: T1, Intestinal-type alkaline phosphatase; experiment: activation of human intestinal alkaline phosphatase – biochemical, dose response (AID 488873); format: functional
Large T antigen = Large T antigen (Simian virus 40, UniProt P03070); format: functional, Betapolyomavirus macacae;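 also: Confirmatory-stage PubChem screen for compounds that inhibit SV40 T antigen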
HeLa = experiment: HeLa cell cytotoxicity, dose response, cytotoxicity control, 24 h, cherry-picked samples (AID 504726); format: functional, cell-based; settings: Homo sapiens;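 also: potency for cytotoxicity as loss of luminescence signal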
ORF 73 = target: T8, ORF 73 (Human herpesvirus 8, UniProt O40947); experiment: inhibitors of C-LANA binding to LBS DNA, dose response, biochemical, fluorescence polarization, cherry-picked samples (AID 504725); design: species or system Human gammaherpesvirus 8;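 also: fluorescence polarization of a labeled DNA duplex reporting LANA DNA binding; potency is for inhibitors that block LANA binding to the DNA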
T8 sequence (O40947 whole entry): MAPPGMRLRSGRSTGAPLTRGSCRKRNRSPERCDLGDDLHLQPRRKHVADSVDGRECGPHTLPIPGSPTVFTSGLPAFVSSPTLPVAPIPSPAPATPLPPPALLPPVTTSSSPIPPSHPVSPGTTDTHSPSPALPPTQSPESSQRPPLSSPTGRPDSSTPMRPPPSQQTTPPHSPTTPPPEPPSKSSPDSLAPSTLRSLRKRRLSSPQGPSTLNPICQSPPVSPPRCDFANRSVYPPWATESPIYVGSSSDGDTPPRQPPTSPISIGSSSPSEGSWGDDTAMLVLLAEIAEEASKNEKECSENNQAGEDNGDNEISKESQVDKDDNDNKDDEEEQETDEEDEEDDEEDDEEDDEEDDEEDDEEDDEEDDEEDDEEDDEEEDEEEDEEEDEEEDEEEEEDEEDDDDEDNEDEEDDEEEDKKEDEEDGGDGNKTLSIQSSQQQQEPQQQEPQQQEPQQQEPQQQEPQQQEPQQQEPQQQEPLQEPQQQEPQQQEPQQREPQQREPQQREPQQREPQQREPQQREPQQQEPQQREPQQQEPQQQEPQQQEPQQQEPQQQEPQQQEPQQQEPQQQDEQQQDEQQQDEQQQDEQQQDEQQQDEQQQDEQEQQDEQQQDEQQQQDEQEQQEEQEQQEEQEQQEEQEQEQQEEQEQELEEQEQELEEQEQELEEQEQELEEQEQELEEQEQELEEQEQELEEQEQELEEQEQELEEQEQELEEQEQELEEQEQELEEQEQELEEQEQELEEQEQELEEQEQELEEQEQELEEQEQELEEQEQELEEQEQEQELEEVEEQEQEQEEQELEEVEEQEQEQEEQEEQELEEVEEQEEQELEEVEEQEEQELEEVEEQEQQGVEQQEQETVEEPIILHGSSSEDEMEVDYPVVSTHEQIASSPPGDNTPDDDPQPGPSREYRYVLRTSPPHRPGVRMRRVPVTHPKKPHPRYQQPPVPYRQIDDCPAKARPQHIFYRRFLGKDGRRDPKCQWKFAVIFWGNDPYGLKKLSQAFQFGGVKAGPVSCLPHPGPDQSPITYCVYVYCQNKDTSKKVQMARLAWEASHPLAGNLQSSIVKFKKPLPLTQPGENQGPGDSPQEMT

[19] = target: T2, Alkaline phosphatase, tissue-nonspecific isozyme; experiment: TNAP enzyme activators, dose response, selectivity assay for mouse IAP activator project, biochemical, TNAP isozyme, mouse IAP uHTS hits (AID 488880); format: functional
[20] = target: T3, Tyrosine-protein phosphatase non-receptor type 22; format: functional
[21] = target: T4, Tyrosine-protein phosphatase non-receptor type 7; format: functional
[22] = inhibitors of intracellular T. cruzi replication, confirmation, NIH3T3 host cells, beta-gal luminescence (AID 2044); format: functional, cell-based;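 also: intracellular parasites grown in NIH/3T3 mouse fibroblasts as host cells; luminescent beta-galactosidase reporter signal from transgenic T. cruzi replicating inside host cells; inhibitors lower the luminescence signal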
[23] = target: T3, Tyrosine-protein phosphatase non-receptor type 22; format: functional; remark: listed apart in the source
[24] = cytotoxicity toward NIH3T3 fibroblasts, dose response, counter-screen, cell-based, ATP luminescence, mouse fibroblasts (AID 2010); format: functional;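 also: cells exposed to compound for about 90 hours before reading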

T1 sequence (P09923 whole entry): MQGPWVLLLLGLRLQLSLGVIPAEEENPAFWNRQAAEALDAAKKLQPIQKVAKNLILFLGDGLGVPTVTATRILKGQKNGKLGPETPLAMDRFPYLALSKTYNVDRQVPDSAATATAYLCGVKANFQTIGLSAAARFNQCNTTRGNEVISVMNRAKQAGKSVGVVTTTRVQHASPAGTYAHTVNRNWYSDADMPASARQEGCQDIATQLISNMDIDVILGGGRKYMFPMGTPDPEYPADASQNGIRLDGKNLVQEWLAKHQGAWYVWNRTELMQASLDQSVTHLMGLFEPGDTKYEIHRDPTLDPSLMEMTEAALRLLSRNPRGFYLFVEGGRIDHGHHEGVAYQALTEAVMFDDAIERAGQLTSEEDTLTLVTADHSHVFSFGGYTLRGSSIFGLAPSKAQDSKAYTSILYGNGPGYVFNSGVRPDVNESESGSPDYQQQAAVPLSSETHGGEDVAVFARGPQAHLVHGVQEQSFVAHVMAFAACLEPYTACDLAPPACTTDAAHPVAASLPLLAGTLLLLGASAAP

O=C(O)CNS(=O)(=O)c1ccc2c3c(cccc13)C(=O)N2
IC50 [1]: > 100 µM (inactive) | IC50 [2]: 8.43 µM (active) | IC50 [3]: 85.4 µM (active)

O=C(O)COc1ccc(C=NNC(=O)c2ccccc2Br)cc1
IC50 [4]: > 100 µM (inactive) | IC50 [5]: > 100 µM (inactive) | IC50 [6]: > 100 µM (inactive) | IC50 [7]: 66.3 µM (active) | IC50 [8]: > 100 µM (inactive) | IC50 [9]: > 100 µM (inactive)

COc1ccc(-c2csc(Cc3nc(O)cs3)n2)cc1
EC50 (Mu-type opioid receptor): > 32 µM (inactive) | EC50 (Beta-galactosidase): > 31.5 µM (inactive) | EC50 [10]: > 32 µM (inactive) | pIC50 [11]: < 4.49 | IC50 [12]: > 32 µM (inactive) | IC50 [13]: 7.92 µM (active)

Cc1ccc(O)c(N=Cc2cccs2)c1
IC50 (SUMO E1/E2): > 100 µM (inactive)

CN1C(=O)C(Cc2ccsc2)C(=O)N(C)C1=O
AC50 [14]: 8.7 µM (active) | IC50 [15]: 33.6 µM (active) | AC50 [16]: 3.65 µM (active) | IC50 [17]: 29.2 µM (active)

N=C1/C(=C\c2ccc(O)c(O)c2)C(=O)N=C2SC(CC(=O)N3CCCCC3)=NN12
EC50 [18]: 21.3 µM (active) | IC50 (Large T antigen): 1.92 µM (active) | AC50 (HeLa): 267 µM (active) | IC50 [2]: 6.98 µM (active) | AC50 (ORF 73): 2.44 µM (active) | EC50 [19]: 21.5 µM (active)

CCCCOc1ccc(CN2CCCCC2)cc1
IC50 [20]: > 79.4 µM (inactive) | IC50 [21]: > 79.4 µM (inactive) | EC50 [22]: 1.2 µM (active) | IC50 [23]: > 79.4 µM (inactive) | EC50 [24]: > 30 µM (not active)
